# Laboratory results as given in EP4745137A1 (Gluetacs Therapeutics (Shanghai) Co., Ltd., priority 2023, dated 2025).
# Assays:
# [1] = test system: SW620; assay: Tumor cell proliferation inhibition (CellTiter-Meiluncell Luminescent Cell Viability Assay), SW620; conditions: Homo sapiens, SW-620, 96 h, read-out: inhibitory activity (IC50, nM) against tumor cells proliferation, SW620
# [2] = molecular target: T1, CK1α (Homo sapiens, UniProt P48729+Q96SW2); assay: Western-blot assay of substrate protein degradation in hPBMCs, CK1α; format: cell-based; conditions: 24 hours of compound treatment, compounds tested at 50 nM and 500 nM (concentration of the table not stated)
# T1 construct: endogenous in cells; host or cells: hPBMCs (Milecell Biotechnologies)
# [3] = molecular target: T2, IKZF3 (Homo sapiens, UniProt Q96SW2+Q9UKT9); assay: Western-blot assay of substrate protein degradation in hPBMCs, IKZF3; format: cell-based; conditions: 24 hours of compound treatment, compounds tested at 50 nM and 500 nM (concentration of the table not stated)
# T2 construct: endogenous in cells; host or cells: hPBMCs (Milecell Biotechnologies)
# [4] = molecular target: T3, IKZF1 (Homo sapiens, UniProt Q13422+Q96SW2); assay: Western-blot assay of substrate protein degradation in hPBMCs, IKZF1; format: cell-based; conditions: 24 hours of compound treatment, compounds tested at 50 nM and 500 nM (concentration of the table not stated)
# T3 construct: endogenous in cells; host or cells: hPBMCs (Milecell Biotechnologies)
# [5] = test system: Human acute T lymphocytic leukemia cells (Molt-4); assay: Tumor cell proliferation inhibition (CellTiter-Meiluncell Luminescent Cell Viability Assay), Molt-4; conditions: MOLT-4, 96 h, read-out: inhibitory activity (IC50, nM) against tumor cells proliferation, Molt 4
# [6] = test system: CAL-62; assay: Tumor cell proliferation inhibition (CellTiter-Meiluncell Luminescent Cell Viability Assay), CAL-62; conditions: Homo sapiens, CAL-62, 96 h, read-out: inhibitory activity (IC50, nM) against tumor cells proliferation, CAL-62
# [7] = molecular target: T4, IKZF2 (Homo sapiens, UniProt Q96SW2+Q9UKS7); assay: Western-blot assay of substrate protein degradation in hPBMCs, IKZF2; format: cell-based; conditions: 24 hours of compound treatment, compounds tested at 50 nM and 500 nM (concentration of the table not stated)
# T4 construct: endogenous in cells; host or cells: hPBMCs (Milecell Biotechnologies)
# [8] = test system: CCRF-CEM; assay: Tumor cell proliferation inhibition (CellTiter-Meiluncell Luminescent Cell Viability Assay), CCRF-CEM; conditions: Homo sapiens, 96 h, read-out: inhibitory activity (IC50, nM) against tumor cells proliferation, CCRF-CEM
# [9] = molecular target: T5, GSPT1 (Homo sapiens, UniProt P15170+Q96SW2); assay: Western-blot assay of substrate protein degradation in hPBMCs, GSPT1; format: cell-based; conditions: 24 hours of compound treatment, compounds tested at 50 nM and 500 nM (concentration of the table not stated)
# T5 construct: endogenous in cells; host or cells: hPBMCs (Milecell Biotechnologies)
# [10] = test system: Vcap; assay: Tumor cell proliferation inhibition (CellTiter-Meiluncell Luminescent Cell Viability Assay), Vcap; conditions: Homo sapiens, 96 h, read-out: inhibitory activity (IC50, nM) against tumor cells proliferation, Vcap
# Experimental: The tumor cells used herein were cultured in a cell culture medium listed in table 2 at 37°C in an incubator with 5% CO2. Prior to experimentation, all cell lines used were correctly identified by STR profiling, and tested negative for mycoplasma contamination using a mycoplasma detection kit through routine screenings.
# On the following day, the test compounds of the present disclosure were subjected to serial dilution. […] Subsequently, 0.5 µL of the test compound dilution was transferred into the 96-well plate containing the cells, with each well containing 100 µL of cell culture medium. […] Into the 96-well plate, the diluted test compounds and corresponding detection reagents were added, resulting in final test compound concentrations of 500 nM and 10 nM, respectively. The experimental procedure is described below using the diluted 2 µM test compound as an example.
# After the cells were treated with the compounds of the present disclosure for a specified period (the treatment durations were shown in Table 3), the cell viability assay reagent was added to the culture medium according to the kit's instructions to determine cell viability. […] All controls were treated using the same procedure as the compounds of the present disclosure. The growth inhibition curves for the compounds of the present disclosure were plotted using Prism GraphPad software, and the IC50 values were calculated therefrom.
# [11] = test system: MM.1R; assay: Tumor cell proliferation inhibition (CellTiter-Meiluncell Luminescent Cell Viability Assay), MM.1R; conditions: Homo sapiens, 96 h, read-out: inhibitory activity (IC50, nM) against tumor cells proliferation, MM.1R
# [12] = test system: Jurkat; assay: Tumor cell proliferation inhibition (CellTiter-Meiluncell Luminescent Cell Viability Assay), Jurkat; conditions: Homo sapiens, 96 h, read-out: inhibitory activity (IC50, nM) against tumor cells proliferation, Jurkat
# [13] = molecular target: T6, WEE1 (Homo sapiens, UniProt P30291+Q96SW2); assay: Western-blot assay of substrate protein degradation in hPBMCs, WEE1; format: cell-based; conditions: 24 hours of compound treatment, compounds tested at 50 nM and 500 nM (concentration of the table not stated)
# T6 construct: endogenous in cells; host or cells: hPBMCs (Milecell Biotechnologies)
# [14] = molecular target: T7, human Cereblon WT GST-tagged protein (Homo sapiens, UniProt Q96SW2); assay: CRBN-binding affinity by HTRF (CEREBLON BINDING kit); conditions: HTRF inhibitory activity, CEREBLON BINDING kit; read-out: HTRF IC50
# T7 construct: purchased CISBIO 64BDCRBNPEH
# [15] = test system: MGC803; assay: Tumor cell proliferation inhibition (CellTiter-Meiluncell Luminescent Cell Viability Assay), MGC803; conditions: Homo sapiens, MGC-803, 96 h, read-out: inhibitory activity (IC50, nM) against tumor cells proliferation, MGC803
# T6 sequence (P30291 whole entry): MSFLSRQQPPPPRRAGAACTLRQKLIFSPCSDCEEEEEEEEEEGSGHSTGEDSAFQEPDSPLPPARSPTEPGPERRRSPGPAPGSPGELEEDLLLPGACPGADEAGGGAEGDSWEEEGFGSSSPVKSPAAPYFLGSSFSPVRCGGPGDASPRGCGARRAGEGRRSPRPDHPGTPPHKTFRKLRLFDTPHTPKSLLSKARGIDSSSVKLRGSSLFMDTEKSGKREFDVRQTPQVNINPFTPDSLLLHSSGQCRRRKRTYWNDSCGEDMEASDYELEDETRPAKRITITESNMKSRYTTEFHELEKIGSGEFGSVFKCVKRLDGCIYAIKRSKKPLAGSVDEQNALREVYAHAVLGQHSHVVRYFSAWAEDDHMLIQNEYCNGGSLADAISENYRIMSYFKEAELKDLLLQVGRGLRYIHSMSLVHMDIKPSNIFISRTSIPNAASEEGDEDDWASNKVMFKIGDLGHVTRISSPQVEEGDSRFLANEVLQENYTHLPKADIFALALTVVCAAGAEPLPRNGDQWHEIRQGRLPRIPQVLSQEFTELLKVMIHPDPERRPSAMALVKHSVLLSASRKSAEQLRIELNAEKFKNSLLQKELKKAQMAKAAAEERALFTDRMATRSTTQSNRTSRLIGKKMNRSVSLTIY
# T6 sequence (Q96SW2 whole entry): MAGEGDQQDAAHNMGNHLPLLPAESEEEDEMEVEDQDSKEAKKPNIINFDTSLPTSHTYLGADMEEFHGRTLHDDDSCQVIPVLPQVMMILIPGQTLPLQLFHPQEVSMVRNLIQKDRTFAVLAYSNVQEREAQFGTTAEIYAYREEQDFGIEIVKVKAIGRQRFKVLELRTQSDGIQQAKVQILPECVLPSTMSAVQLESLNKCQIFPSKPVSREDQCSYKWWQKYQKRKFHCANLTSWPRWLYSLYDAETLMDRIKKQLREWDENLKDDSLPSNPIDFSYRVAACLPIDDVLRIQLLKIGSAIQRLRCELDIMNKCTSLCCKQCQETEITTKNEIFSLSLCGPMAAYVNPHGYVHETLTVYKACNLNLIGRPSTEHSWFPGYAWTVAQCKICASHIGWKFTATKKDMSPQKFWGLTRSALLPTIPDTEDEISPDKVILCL
# T6 sequence (Q16531 whole entry partner): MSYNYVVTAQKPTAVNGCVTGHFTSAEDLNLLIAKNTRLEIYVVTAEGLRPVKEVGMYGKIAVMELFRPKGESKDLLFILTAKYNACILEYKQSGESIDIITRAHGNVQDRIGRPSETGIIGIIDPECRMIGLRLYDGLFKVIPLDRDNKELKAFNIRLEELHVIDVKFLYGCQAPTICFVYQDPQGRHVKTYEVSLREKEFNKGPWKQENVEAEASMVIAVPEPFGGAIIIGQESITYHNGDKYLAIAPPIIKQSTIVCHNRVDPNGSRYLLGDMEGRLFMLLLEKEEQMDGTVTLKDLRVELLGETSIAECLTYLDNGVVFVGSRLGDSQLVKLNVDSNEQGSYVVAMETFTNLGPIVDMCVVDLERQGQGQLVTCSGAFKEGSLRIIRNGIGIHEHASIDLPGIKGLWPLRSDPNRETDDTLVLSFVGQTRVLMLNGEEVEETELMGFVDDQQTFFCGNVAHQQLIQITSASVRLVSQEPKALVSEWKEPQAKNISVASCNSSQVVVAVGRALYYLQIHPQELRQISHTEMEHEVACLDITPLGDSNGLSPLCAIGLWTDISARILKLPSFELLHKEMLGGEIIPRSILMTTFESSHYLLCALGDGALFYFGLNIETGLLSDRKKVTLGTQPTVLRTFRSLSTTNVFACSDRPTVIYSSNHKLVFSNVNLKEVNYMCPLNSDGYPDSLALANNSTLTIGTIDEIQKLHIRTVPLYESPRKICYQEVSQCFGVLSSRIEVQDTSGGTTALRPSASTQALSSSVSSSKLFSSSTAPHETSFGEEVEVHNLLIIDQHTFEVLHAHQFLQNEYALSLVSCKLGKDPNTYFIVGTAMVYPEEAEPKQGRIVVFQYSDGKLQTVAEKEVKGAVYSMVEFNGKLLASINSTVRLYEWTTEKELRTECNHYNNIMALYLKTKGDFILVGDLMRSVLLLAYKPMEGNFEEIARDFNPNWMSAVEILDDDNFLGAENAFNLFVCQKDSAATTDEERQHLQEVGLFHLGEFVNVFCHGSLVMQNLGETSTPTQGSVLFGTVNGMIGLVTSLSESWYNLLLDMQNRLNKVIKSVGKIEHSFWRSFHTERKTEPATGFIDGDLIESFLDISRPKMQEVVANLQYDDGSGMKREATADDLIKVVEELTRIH
# T7 sequence (Q96SW2 whole entry): as the sequence (Q96SW2 whole entry) above
# T4 sequence (Q9UKS7 whole entry): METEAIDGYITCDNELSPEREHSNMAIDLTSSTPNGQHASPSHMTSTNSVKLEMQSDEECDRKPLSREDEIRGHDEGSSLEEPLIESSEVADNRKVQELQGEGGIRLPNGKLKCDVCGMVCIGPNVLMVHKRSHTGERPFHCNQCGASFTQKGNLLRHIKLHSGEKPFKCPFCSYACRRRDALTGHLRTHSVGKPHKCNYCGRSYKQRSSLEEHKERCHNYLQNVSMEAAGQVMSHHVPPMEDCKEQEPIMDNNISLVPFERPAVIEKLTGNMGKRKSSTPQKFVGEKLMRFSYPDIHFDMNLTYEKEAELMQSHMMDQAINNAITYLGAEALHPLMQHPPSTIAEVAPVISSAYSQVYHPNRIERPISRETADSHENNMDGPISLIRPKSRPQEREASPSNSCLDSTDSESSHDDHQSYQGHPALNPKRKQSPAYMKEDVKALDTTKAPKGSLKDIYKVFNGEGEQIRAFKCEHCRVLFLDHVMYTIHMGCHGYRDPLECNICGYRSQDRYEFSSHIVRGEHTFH
# T4 sequence (Q96SW2 whole entry): as the sequence (Q96SW2 whole entry) above
# T4 sequence (Q16531 whole entry partner): as the sequence (Q16531 whole entry partner) above
# T2 sequence (Q9UKT9 whole entry): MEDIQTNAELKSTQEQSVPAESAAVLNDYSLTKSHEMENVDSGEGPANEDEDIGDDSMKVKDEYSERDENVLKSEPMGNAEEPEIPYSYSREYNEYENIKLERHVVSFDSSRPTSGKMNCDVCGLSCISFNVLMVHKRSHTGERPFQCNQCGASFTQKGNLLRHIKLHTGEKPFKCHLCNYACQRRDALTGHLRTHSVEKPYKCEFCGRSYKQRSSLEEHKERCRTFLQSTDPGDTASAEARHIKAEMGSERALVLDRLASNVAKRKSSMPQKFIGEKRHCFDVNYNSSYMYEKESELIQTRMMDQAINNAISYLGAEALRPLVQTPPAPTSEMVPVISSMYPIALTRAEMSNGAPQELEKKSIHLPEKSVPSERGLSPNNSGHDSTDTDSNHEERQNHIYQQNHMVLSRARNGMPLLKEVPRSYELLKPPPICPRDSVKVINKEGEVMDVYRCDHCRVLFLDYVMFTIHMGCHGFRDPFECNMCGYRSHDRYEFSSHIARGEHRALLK
# T2 sequence (Q96SW2 whole entry): as the sequence (Q96SW2 whole entry) above
# T2 sequence (Q16531 whole entry partner): as the sequence (Q16531 whole entry partner) above
# T5 sequence (P15170 whole entry): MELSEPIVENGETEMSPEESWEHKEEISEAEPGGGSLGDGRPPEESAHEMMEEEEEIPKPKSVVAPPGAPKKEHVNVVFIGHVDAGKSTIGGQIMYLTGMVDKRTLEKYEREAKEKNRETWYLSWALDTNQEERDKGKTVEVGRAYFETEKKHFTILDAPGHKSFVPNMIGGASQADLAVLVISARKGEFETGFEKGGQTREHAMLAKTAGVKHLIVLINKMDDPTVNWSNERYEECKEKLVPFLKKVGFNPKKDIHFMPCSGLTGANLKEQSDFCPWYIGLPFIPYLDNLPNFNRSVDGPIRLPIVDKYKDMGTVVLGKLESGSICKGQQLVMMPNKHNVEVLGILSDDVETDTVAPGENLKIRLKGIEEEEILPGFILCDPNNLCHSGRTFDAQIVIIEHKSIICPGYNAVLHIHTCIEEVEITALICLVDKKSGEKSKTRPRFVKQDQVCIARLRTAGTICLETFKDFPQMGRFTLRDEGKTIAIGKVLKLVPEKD
# T5 sequence (Q96SW2 whole entry): as the sequence (Q96SW2 whole entry) above
# T5 sequence (Q16531 whole entry partner): as the sequence (Q16531 whole entry partner) above
# T3 sequence (Q13422 whole entry): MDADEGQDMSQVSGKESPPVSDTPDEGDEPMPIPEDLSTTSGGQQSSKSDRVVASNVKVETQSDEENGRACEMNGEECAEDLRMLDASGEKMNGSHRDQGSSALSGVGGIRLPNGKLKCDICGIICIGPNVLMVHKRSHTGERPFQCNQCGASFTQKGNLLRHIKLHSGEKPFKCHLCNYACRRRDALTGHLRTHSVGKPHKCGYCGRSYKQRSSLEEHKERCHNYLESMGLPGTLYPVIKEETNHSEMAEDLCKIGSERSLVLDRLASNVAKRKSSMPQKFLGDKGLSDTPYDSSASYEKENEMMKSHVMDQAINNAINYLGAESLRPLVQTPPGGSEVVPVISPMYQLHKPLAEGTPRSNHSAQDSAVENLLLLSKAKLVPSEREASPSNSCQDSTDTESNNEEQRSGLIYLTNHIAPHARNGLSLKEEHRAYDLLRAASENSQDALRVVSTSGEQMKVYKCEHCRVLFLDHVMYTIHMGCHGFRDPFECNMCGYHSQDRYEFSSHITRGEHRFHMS
# T3 sequence (Q96SW2 whole entry): as the sequence (Q96SW2 whole entry) above
# T3 sequence (Q16531 whole entry partner): as the sequence (Q16531 whole entry partner) above
Compound,IC50 [1] [nM],CK1a substrate protein remaining % [2],IKZF3 substrate protein remaining % [3],IKZF 1 substrate protein remaining % [4],IC50 [5] [nM],IC50 [6] [nM],IKZF2 substrate protein remaining % [7],IC50 [8] [nM],GSPT1 substrate protein remaining % [9],IC50 [10] [nM],IC50 [11] [nM],IC50 [12] [nM],Weel substrate protein remaining % [13],IC50 [14] [nM],IC50 [15] [nM]
"O=C1CCC(N2Cc3cc(CN4CCN(c5cccc(F)n5)CC4)ccc3C2=O)C(=O)N1 (stereo not drawn) [GT-04498, 3-(5-((4-(6-fluoropyridin-2-yl)piperazin-1-yl)methyl)-1-oxoisoindolin-2-yl)piperidine-2,6-dione]",500 to 1000,A (0% ≤ substrate protein remaining % ≤ 80%),A (0% ≤ substrate protein remaining % ≤ 80%),A (0% ≤ substrate protein remaining % ≤ 80%),10 to 50,50 to 100,A (0% ≤ substrate protein remaining % ≤ 80%),10 to 50,A (0% ≤ substrate protein remaining % ≤ 80%),100 to 500,50 to 100,10 to 50,A (0% ≤ substrate protein remaining % ≤ 80%),500 to 1000,
"Cc1cscc1C1CCN(Cc2ccc3c(c2)CN(C2CCC(=O)NC2=O)C3=O)CC1 (stereo not drawn) [GT-04504, 3-(5-((4-(4-methylthiophen-3-yl)piperidin-1-yl)methyl)-1-oxoisoindolin-2-yl)piperidine-2,6-dione]",100 to 500,B (80%< substrate protein remaining %≤ 100%),A (0% ≤ substrate protein remaining % ≤ 80%),A (0% ≤ substrate protein remaining % ≤ 80%),10 to 50,10 to 50,A (0% ≤ substrate protein remaining % ≤ 80%),10 to 50,A (0% ≤ substrate protein remaining % ≤ 80%),50 to 100,10 to 50,10 to 50,A (0% ≤ substrate protein remaining % ≤ 80%),500 to 1000,
"O=C1CCC(N2Cc3cc(CN4CCC(c5ccc(Cl)cc5)CC4)ccc3C2=O)C(=O)N1 (stereo not drawn) [GT-04469, 3-(5-((4-(4-chlorophenyl)piperidin-1-yl)methyl)-1-oxoisoindolin-2-yl)piperidine-2,6-dione]",500 to 1000,A (0% ≤ substrate protein remaining % ≤ 80%),A (0% ≤ substrate protein remaining % ≤ 80%),A (0% ≤ substrate protein remaining % ≤ 80%),10 to 50,10 to 50,A (0% ≤ substrate protein remaining % ≤ 80%),5 to 10,A (0% ≤ substrate protein remaining % ≤ 80%),50 to 100,10 to 50,10 to 50,A (0% ≤ substrate protein remaining % ≤ 80%),500 to 1000,500 to 1000
"Cc1ccsc1C1CCN(Cc2ccc3c(c2)CN(C2CCC(=O)NC2=O)C3=O)CC1 (stereo not drawn) [GT-04502, 3-(5-((4-(3-methylthiophen-2-yl)piperidin-1-yl)methyl)-1-oxoisoindolin-2-yl)piperidine-2,6-dione]",100 to 500,A (0% ≤ substrate protein remaining % ≤ 80%),A (0% ≤ substrate protein remaining % ≤ 80%),A (0% ≤ substrate protein remaining % ≤ 80%),10 to 50,10 to 50,A (0% ≤ substrate protein remaining % ≤ 80%),10 to 50,A (0% ≤ substrate protein remaining % ≤ 80%),50 to 100,10 to 50,10 to 50,A (0% ≤ substrate protein remaining % ≤ 80%),500 to 1000,
